The subject of one assay is HAP1 MTAP-intact. The assay can be described thus: SDMA in-cell western assay, HAP1 MTAP-intact cell line. In kind it is cell-based. The settings on record: Homo sapiens. The gist of the method: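 IC50 values come from SDMA in-cell western staining of HAP1 cells. The MTAP-intact line carries endogenous MTAP, while its MTAP-deleted counterpart lacks MTAP entirely. A selectivity ratio of at least 3 fold marks a compound as MTAP-selective.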

Assay [1] has as its target T1, PRMT5 (Homo sapiens, UniProt O14744).
T1 construct: purchased Viva (custom protein)
Put plainly: PRMT5 IC50 assay in the presence of MTA as cofactor. The assay is classed as biochemical. The settings on record: for IC50: PRMT5, MTA as cofactor. In a few lines:
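For the SAM-containing format, dividing IC50 by 1.5 yields Ki; for the MTA-containing format the divisor is 13.5. A third format without cofactor gives IC50 alone.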

The next assay concerns HAP1 MTAP-deleted. Put plainly: SDMA in-cell western assay, HAP1 MTAP-deleted cell line. The assay is classed as cell-based. The settings on record: for IC50: Homo sapiens, HAP1 MTAP-deleted cell line; for MTAP Intact/Deleted Ratio: IC50 ratio HAP1 MTAP-intact / HAP1 MTAP-deleted. The gist of the method: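 Readout is cellular SDMA signal by in-cell western, with IC50 values derived from it. The cells are MTAP-null HAP1, matched to an isogenic MTAP-intact HAP1 line.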

For assay [2], the target named is T1, PRMT5. Put plainly: PRMT5 IC50 assay with no cofactor. In kind it is biochemical. In a few lines: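 Each compound is tested on PRMT5 in the presence of SAM, of MTA, and without any cofactor. Ki values are then back-calculated using fixed factors of 1.5 (SAM) and 13.5 (MTA), and the two Ki values are compared as a ratio.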
Assay [3] has as its target T1, PRMT5. Put plainly: PRMT5 IC50 assay in the presence of SAM as cofactor. The assay is classed as biochemical. In a few lines:
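IC50 against PRMT5 determined with SAM as cofactor, with no cofactor, and with MTA as cofactor. Ki derived as IC50/1.5 for the SAM assay and IC50/13.5 for the MTA assay; SAM Ki to MTA Ki ratio also reported.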

Setting [4] is: ratio between Ki in the presence of SAM and Ki in the presence of MTA.
Where [5] appears, read: ratio between the Ki in the presence of SAM and the Ki in the presence of MTA.

Each structure is given as a SMILES string. Where only a bound is given, the exact number is not on record here.

As usually defined, the IC50 is the midpoint of a concentration-inhibition curve.

T1 sequence (O14744 whole entry): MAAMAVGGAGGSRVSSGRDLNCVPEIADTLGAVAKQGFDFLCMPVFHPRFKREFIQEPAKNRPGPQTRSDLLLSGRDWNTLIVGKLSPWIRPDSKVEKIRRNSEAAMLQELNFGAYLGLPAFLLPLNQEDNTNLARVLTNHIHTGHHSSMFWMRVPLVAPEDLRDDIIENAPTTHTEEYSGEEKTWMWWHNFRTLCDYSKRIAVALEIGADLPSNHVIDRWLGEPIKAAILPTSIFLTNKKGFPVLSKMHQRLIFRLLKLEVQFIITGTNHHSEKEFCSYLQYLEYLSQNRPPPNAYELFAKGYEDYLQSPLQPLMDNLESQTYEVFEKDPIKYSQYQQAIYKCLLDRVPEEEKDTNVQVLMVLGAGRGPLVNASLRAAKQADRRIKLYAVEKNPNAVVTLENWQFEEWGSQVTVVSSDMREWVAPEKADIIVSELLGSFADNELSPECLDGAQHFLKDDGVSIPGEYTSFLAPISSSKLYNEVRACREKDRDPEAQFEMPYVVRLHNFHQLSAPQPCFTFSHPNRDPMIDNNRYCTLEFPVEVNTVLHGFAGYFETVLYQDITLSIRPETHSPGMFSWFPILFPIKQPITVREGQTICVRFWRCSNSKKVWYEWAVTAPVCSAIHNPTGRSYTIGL
T1 sequence (Q9BQA1 whole entry partner): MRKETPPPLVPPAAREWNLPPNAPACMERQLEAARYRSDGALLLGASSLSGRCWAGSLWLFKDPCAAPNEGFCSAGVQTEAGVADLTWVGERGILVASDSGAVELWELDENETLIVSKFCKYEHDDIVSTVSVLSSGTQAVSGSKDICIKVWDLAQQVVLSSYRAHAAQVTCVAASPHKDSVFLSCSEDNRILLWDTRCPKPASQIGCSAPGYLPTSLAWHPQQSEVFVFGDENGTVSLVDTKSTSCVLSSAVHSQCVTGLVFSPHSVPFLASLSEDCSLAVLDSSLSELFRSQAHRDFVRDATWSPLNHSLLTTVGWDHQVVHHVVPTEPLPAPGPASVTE

Turning to `Cc1c(OCc2cnco2)ccc2c1CCN(C[C@@H](O)CNC(=O)c1ccc3c(c1)CCN(C(=O)c1ccc(Br)cc1)C3)C2` [Compound 546], the IC50 is no less than 10000 nM with HAP1 MTAP-intact; 50 to 500 nM at PRMT5 [1]; no less than 10000 nM in the assay on HAP1 MTAP-deleted; 500 to 5000 nM against PRMT5 [2]; 50 to 500 nM at PRMT5 [3]. The “MTAP Intact/Deleted Ratio” value in the assay on HAP1 MTAP-deleted is “C* (an IC50 ratio of less than 3 fold between the IC50 in the HAP1 MTAP-intact cell line and the HAP1 MTAP-deleted cell line)”.

For `Cc1ncoc1COc1ccc2c(c1Cl)CCN(C[C@@H](O)CNC(=O)c1cc(NC3CCCC3)ncn1)C2` [Compound 339, N-[(2S)-3-[5-chloro-6-[(4-methyl-1,3-oxazol-5-yl)methoxy]-1,2,3,4-tetrahydroisoquinolin-2-yl)-2-hydroxypropyl]-6-(cxclopentylamino)pyrimidine-4-carboxamide], the IC50 was no less than 10000 nM in the assay with HAP1 MTAP-intact; 50 to 500 nM at PRMT5 [1]; no less than 10000 nM with HAP1 MTAP-deleted; no less than 5000 nM at PRMT5 [2] (read-out: No Co-factor IC50); 500 to 5000 nM on PRMT5 [3]. At PRMT5 [1] (setting [4]), the “SAM/MTA Ratio” value is “A (a Ki ratio greater than or equal to 10 fold between the Ki in the presence of SAM and the Ki in the presence of MTA)”. For the same compound, in the assay with HAP1 MTAP-deleted, the “MTAP Intact/Deleted Ratio” value was “C* (an IC50 ratio of less than 3 fold between the IC50 in the HAP1 MTAP-intact cell line and the HAP1 MTAP-deleted cell line)”.

In the case of `CC(=O)N1CC(Nc2cc(C(=O)NC[C@H](O)CN3CCc4c(ccc(OCc5cnco5)c4Cl)C3)nc(C(C)C)n2)C1` [Compound 342, (S)-6-((1-acetylazetidin-3-yl)amino)-N-(3-(5-chloro-6-(oxazol-5-ylmethoxy)-3,4-dihydroisoquinolin-2(1H)-yl)-2-hydroxypropyl)-2-isopropylpyrimidine-4-carboxamide], the IC50 was no less than 10000 nM in the assay with HAP1 MTAP-intact; 50 to 500 nM on PRMT5 [1]; less than 1000 nM in the assay with HAP1 MTAP-deleted; 500 to 5000 nM at PRMT5 [2] (read-out: No Co-factor IC50); 50 to 500 nM on PRMT5 [3]. For the same compound, at PRMT5 [1] (setting [4]), the “SAM/MTA Ratio” value is “A (a Ki ratio greater than or equal to 10 fold between the Ki in the presence of SAM and the Ki in the presence of MTA)”. Further, in the assay with HAP1 MTAP-deleted, the “MTAP Intact/Deleted Ratio” value was “A* (an IC50 ratio greater than or equal to 10 fold between the IC50 in the HAP1 MTAP-intact cell line and the HAP1 MTAP-deleted cell line)”.

With `CC(C)(C)N1CCN(c2cc(C(=O)NC[C@H](O)CN3CCc4c(ccc(OCc5cnco5)c4Cl)C3)cc(NC3CCC3)n2)CC1` [Compound 319, (S)-2-(4-(tert-butyl)piperazin-1-yl)-N-(3-(5-chloro-6-(oxazol-5-ylmethoxy)-3N-dihydroisoquinolin-2(1H)-yl)-2-hydroxypropyl)-6-(cyclobutylamino)isonicotinamide], the IC50 with HAP1 MTAP-intact is no less than 10000 nM; at PRMT5 [1], 50 to 500 nM; in the assay with HAP1 MTAP-deleted, no less than 10000 nM; at PRMT5 [2] (read-out: No Co-factor IC50), 500 to 5000 nM; at PRMT5 [3] it was 50 to 500 nM. In addition, the “SAM/MTA Ratio” value at PRMT5 [1] (setting [4]) was “A (a Ki ratio greater than or equal to 10 fold between the Ki in the presence of SAM and the Ki in the presence of MTA)”. Further, the “MTAP Intact/Deleted Ratio” value in the assay with HAP1 MTAP-deleted is “C* (an IC50 ratio of less than 3 fold between the IC50 in the HAP1 MTAP-intact cell line and the HAP1 MTAP-deleted cell line)”.

For `Cc1cc(OCc2cnco2)cc2c1CN(C[C@@H](O)CNC(=O)c1ccnc(NC3CCC3)c1)CC2` [Compound 260, 2-(cyclobutylamino)-N-[(2S)-2-hydroxy-3-[8-methyl-6-(oxazol-5-ylmethoxy)-3,4-dihydro-1H-isoquinolin-2-yl]propyl]pyridine-4-carboxamide], the IC50 was 1000 to 10000 nM in the assay with HAP1 MTAP-intact; 500 to 5000 nM on PRMT5 [1]; 1000 to 10000 nM in the assay with HAP1 MTAP-deleted; no less than 5000 nM on PRMT5 [2] (read-out: No Co-factor IC50); 500 to 5000 nM at PRMT5 [3]. The “SAM/MTA Ratio” value at PRMT5 [1] (setting [4]) was “A (a Ki ratio greater than or equal to 10 fold between the Ki in the presence of SAM and the Ki in the presence of MTA)”. Besides, in the assay on HAP1 MTAP-deleted, the “MTAP Intact/Deleted Ratio” value is “C* (an IC50 ratio of less than 3 fold between the IC50 in the HAP1 MTAP-intact cell line and the HAP1 MTAP-deleted cell line)”.

`COc1ccc(C(=O)N2CCc3cc(C(=O)NC[C@H](O)CN4CCc5c(ccc(OCc6cnco6)c5C)C4)ccc3C2)cc1` [Compound 540, N-[(2S)-2-hydroxy-3-{5-methyl-6-[(1,3-oxazol-5-yl)methoxy]-1,2,3,4-tetrahydroisoquinolin-2-yl}propyl]-2-(4-methoxybenzoyl)-1,2,3,4-tetrahydroisoquinoline-6-carboxamide]: the IC50 is no less than 10000 nM with HAP1 MTAP-intact; 50 to 500 nM on PRMT5 [1]; 1000 to 10000 nM in the assay with HAP1 MTAP-deleted; 500 to 5000 nM at PRMT5 [2]; 50 to 500 nM at PRMT5 [3]. For the same compound, the “SAM/MTA Ratio” value on PRMT5 [1] (setting [5]) is “A (a Ki ratio greater than or equal to 10 fold between the Ki in the presence of SAM and the Ki in the presence of MTA)”. Also, the “MTAP Intact/Deleted Ratio” value in the assay on HAP1 MTAP-deleted was “C* (an IC50 ratio of less than 3 fold between the IC50 in the HAP1 MTAP-intact cell line and the HAP1 MTAP-deleted cell line)”.

In the case of `CC(=O)N1CC(Nc2cc(C(=O)NC[C@H](O)CN3CCc4c(ccc(OCc5ocnc5C)c4C)C3)nc(C(C)C)n2)C1` [Compound 575, (S)-6-((1-acetylazetidin-3-yl)amino)-N-(2-hydroxy-3-(5-methyl-6-((4-methyloxazol-5-yl)methoxy)-3A-dihydroisoquinolin-2(1H)-yl)propyl)-2-isopropylpyrimidine-4-carboxamide], the IC50 was no less than 10000 nM with HAP1 MTAP-intact; 50 to 500 nM at PRMT5 [1]; 1000 to 10000 nM in the assay with HAP1 MTAP-deleted; no less than 5000 nM against PRMT5 [2]; 50 to 500 nM at PRMT5 [3]. Also, on PRMT5 [1] (setting [5]), the “SAM/MTA Ratio” value was “A (a Ki ratio greater than or equal to 10 fold between the Ki in the presence of SAM and the Ki in the presence of MTA)”. The “MTAP Intact/Deleted Ratio” value with HAP1 MTAP-deleted is “B* (an IC50 ratio greater than or equal to 3 fold but lower than 10 fold between the IC50 in the HAP1 MTAP-intact cell line and the HAP1 MTAP-deleted cell line)”.

As for `Cc1ncoc1COc1ccc2c(c1C)CCN(C[C@@H](O)CNC(=O)c1ccnc(NC3CCCC3)c1)C2` [Compound 418, 2-(cyclopentylamino)-N-[(2S)-2-hydroxy-3-{5-methyl-6-[(4-methyl-1,3-oxazol-5-yl)methoxy]-1,2,3,4-tetrahydroisoquinolin-2-yl}propyl]pyridine-4-carboxamide], the IC50 in the assay with HAP1 MTAP-intact was no less than 10000 nM; at PRMT5 [1], 50 to 500 nM; with HAP1 MTAP-deleted, 1000 to 10000 nM; on PRMT5 [2] (read-out: No Co-factor IC50), no less than 5000 nM; on PRMT5 [3] it was 50 to 500 nM. Besides, the “SAM/MTA Ratio” value on PRMT5 [1] (setting [4]) is “A (a Ki ratio greater than or equal to 10 fold between the Ki in the presence of SAM and the Ki in the presence of MTA)”. The “MTAP Intact/Deleted Ratio” value in the assay with HAP1 MTAP-deleted is “C* (an IC50 ratio of less than 3 fold between the IC50 in the HAP1 MTAP-intact cell line and the HAP1 MTAP-deleted cell line)”.

As to `Cc1ncoc1COc1ccc2c(c1)CCN(C[C@@H](O)CNC(=O)c1cc(NC3CCC3)nc(N3CCN(C(=O)C(C)C)CC3)c1)C2` [Compound 463, 2-(cyclobutylamino)-N-[(2S)-2-hydroxy-3-{6-[(4-methyl-1,3-oxazol-5-yl)methoxy]-1,2,3,4-tetrahydroisoquinolin-2-yl}propyl]-6-[4-(2-methylpropanoyl)piperazin-1-yl]pyridine-4-carboxamide], the IC50 in the assay on HAP1 MTAP-intact was less than 1000 nM; at PRMT5 [1] it was 50 to 500 nM; in the assay on HAP1 MTAP-deleted, less than 1000 nM; against PRMT5 [2] it was 500 to 5000 nM; on PRMT5 [3], 50 to 500 nM. In addition, the “SAM/MTA Ratio” value on PRMT5 [1] (setting [5]) was “A (a Ki ratio greater than or equal to 10 fold between the Ki in the presence of SAM and the Ki in the presence of MTA)”. For the same compound, the “MTAP Intact/Deleted Ratio” value in the assay with HAP1 MTAP-deleted is “B* (an IC50 ratio greater than or equal to 3 fold but lower than 10 fold between the IC50 in the HAP1 MTAP-intact cell line and the HAP1 MTAP-deleted cell line)”.

With `CC(=O)N1CCC(Nc2cc(C(=O)NC[C@H](O)CN3CCc4c(ccc(OCc5cn[nH]c5)c4Cl)C3)ncn2)CC1` [Compound 261, 6-[(1-acetyl-4-piperidyl)amino]-N-[(2S)-3-[5-chloro-6-(1H-pyrazol-4-ylmethoxy)-3,4-dihydro-1H-isoquinolin-2-yl]-2-hydroxy-propyl]pyrimidine-4-carboxamide], the IC50 in the assay with HAP1 MTAP-intact was less than 1000 nM; at PRMT5 [1], 50 to 500 nM; with HAP1 MTAP-deleted it was 1000 to 10000 nM; at PRMT5 [2] (read-out: No Co-factor IC50) it was 500 to 5000 nM; at PRMT5 [3], 50 to 500 nM. On PRMT5 [1] (setting [4]), the “SAM/MTA Ratio” value was “A (a Ki ratio greater than or equal to 10 fold between the Ki in the presence of SAM and the Ki in the presence of MTA)”. Further, the “MTAP Intact/Deleted Ratio” value in the assay with HAP1 MTAP-deleted was “C* (an IC50 ratio of less than 3 fold between the IC50 in the HAP1 MTAP-intact cell line and the HAP1 MTAP-deleted cell line)”.

Regarding `Cc1c(OCc2cnco2)ccc2c1CCN(C[C@@H](O)CNC(=O)c1cc(NC3CCN(C(=O)C4CCC4)CC3)ncn1)C2` [Compound 536, 6-[(1-cyclobutanecarbonylpiperidin-4-yl)amino]-N-[(2S)-2-hydroxy-3-{5-methyl-6-[(1,3-oxazol-5-yl)methoxy]-1,2,3,4-tetrahydroisoquinolin-2-yl}propyl]pyrimidine-4-carboxamide], the concentration for half-maximal inhibition (IC50) in the assay with HAP1 MTAP-intact was no less than 10000 nM; on PRMT5 [1] it was 50 to 500 nM; in the assay with HAP1 MTAP-deleted, 1000 to 10000 nM; against PRMT5 [2], 500 to 5000 nM; on PRMT5 [3], 50 to 500 nM. The “SAM/MTA Ratio” value at PRMT5 [1] (setting [5]) was “A (a Ki ratio greater than or equal to 10 fold between the Ki in the presence of SAM and the Ki in the presence of MTA)”. For the same compound, the “MTAP Intact/Deleted Ratio” value with HAP1 MTAP-deleted is “B* (an IC50 ratio greater than or equal to 3 fold but lower than 10 fold between the IC50 in the HAP1 MTAP-intact cell line and the HAP1 MTAP-deleted cell line)”.
